ChEMBL document CHEMBL1909046, “DrugMatrix in vitro pharmacology data”
pIC50, pKi: −log10 of the molar value.

Experiments:
[1] = DRUGMATRIX: Leukotriene, BLT (LTB4) radioligand binding (ligand: [3H]LTB4); assay type: cell membranes, Membrane; conditions: u-937; Not Active = under 50% inhibition at 10 µM
[2] = target: T1, Neuropeptide Y receptor type 1 (Homo sapiens, UniProt P25929); assay type: cell membranes, Membrane; conditions: sk-n-mc; further: in other assays of this panel Not Active means under 50% inhibition at 10 µM
T1 sequence (P25929 whole entry): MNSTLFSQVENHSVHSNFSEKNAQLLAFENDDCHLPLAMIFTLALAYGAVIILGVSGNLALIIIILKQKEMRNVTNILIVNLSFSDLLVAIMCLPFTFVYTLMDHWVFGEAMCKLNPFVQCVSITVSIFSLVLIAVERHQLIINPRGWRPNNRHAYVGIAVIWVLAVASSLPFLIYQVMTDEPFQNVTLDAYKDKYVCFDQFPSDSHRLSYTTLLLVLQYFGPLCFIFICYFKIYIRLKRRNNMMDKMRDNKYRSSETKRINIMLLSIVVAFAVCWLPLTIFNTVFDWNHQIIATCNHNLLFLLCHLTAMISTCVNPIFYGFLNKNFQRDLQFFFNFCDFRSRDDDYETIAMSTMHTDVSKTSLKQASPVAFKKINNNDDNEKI

[3] = target: Beta-2 adrenergic receptor (Homo sapiens, UniProt P07550); experiment: DRUGMATRIX: Adrenergic beta2 radioligand binding (ligand: [3H] CGP-12177); assay type: cell membranes, Membrane; conditions: cho; Not Active = under 50% inhibition at 10 µM
[4] = target: Cytochrome P450 2E1 (Homo sapiens, UniProt P05181); conditions: bti-tn-5b1-4; further: in other assays of this panel Not Active means under 50% inhibition at 10 µM
[5] = DRUGMATRIX: Glutamate, Kainate radioligand binding (ligand: [3H] Kainic acid); assay type: cell membranes, Rattus norvegicus, Wistar, Brain, Membrane; conditions: Not Active = under 50% inhibition at 10 µM
[6] = target: T2, Cytochrome P450 1A2 (Homo sapiens, UniProt P05177); conditions: bti-tn-5b1-4; further: in other assays of this panel Not Active means under 50% inhibition at 10 µM
T2 sequence (P05177 whole entry): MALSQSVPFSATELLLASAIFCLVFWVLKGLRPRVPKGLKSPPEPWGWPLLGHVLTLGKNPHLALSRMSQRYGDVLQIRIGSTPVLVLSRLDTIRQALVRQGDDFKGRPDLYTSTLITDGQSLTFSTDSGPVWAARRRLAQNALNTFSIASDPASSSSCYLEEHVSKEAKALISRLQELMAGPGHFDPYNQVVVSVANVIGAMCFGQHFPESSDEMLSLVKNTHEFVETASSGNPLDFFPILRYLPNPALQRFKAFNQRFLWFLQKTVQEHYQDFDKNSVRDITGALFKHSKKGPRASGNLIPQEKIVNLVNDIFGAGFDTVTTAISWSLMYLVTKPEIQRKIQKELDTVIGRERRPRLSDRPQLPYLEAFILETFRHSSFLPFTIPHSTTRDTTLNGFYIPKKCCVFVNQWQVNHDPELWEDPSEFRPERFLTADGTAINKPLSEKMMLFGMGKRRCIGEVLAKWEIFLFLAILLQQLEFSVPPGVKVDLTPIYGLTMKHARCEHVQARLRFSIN

[7] = DRUGMATRIX: Sodium/nucleoside co-transporter radioligand binding (ligand: nitrobenzylthioinosine); assay type: cell membranes, Cavia porcellus, Dunkin-Hartley, Cerebral cortex, Membrane; conditions: Not Active = under 50% inhibition at 10 µM
[8] = DRUGMATRIX: Calcium Channel Type L, Dihydropyridine radioligand binding (ligand: [3H] Nitrendipine); assay type: cell membranes, Rattus norvegicus, Wistar, Cerebral cortex, Membrane; conditions: Not Active = under 50% inhibition at 10 µM
[9] = DRUGMATRIX: Interleukin IL-1 radioligand binding (ligand: [125I] interleukin 1beta); assay type: cell membranes, Membrane; conditions: nih3t3; Not Active = under 50% inhibition at 10 µM

Sequence of Beta-2 adrenergic receptor (P07550 whole entry): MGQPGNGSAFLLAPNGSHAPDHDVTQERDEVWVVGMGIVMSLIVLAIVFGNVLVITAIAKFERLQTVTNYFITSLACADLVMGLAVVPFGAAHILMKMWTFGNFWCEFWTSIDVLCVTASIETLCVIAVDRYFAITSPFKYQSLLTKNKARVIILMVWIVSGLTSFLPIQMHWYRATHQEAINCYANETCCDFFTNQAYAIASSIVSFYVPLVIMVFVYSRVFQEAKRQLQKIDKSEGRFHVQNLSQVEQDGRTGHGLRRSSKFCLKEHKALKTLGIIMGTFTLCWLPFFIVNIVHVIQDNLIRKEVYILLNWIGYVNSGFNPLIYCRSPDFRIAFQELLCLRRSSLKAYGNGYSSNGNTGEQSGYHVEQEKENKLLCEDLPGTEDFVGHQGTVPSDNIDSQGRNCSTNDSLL
Sequence of Cytochrome P450 2E1 (P05181 whole entry): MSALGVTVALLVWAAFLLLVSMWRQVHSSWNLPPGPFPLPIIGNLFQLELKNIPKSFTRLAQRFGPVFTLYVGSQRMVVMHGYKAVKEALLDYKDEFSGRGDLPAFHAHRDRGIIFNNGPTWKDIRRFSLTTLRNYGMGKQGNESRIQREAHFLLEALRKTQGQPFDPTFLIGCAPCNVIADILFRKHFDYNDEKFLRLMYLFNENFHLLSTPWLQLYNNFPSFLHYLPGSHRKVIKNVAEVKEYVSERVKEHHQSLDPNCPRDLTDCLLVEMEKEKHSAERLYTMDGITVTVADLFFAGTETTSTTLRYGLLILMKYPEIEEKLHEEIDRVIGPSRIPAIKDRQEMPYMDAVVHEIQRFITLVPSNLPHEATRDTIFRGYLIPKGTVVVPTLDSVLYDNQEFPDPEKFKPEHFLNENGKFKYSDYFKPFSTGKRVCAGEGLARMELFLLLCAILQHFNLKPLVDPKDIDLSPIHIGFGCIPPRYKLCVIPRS

Compound | IC50 [1] | Ki [1] | IC50 [2] | IC50 [3] | IC50 [4] | Ki [4] | IC50 [5] | Ki [5] | IC50 [6] | Ki [6] | IC50 [7] | Ki [7] | IC50 [8] | Ki [8] | IC50 [9] | Ki [9] | pIC50 ([8]; read-out: IC50) | pKi ([8]; read-out: Ki)
CC(C(=O)O)c1cccc(C(=O)c2ccccc2)c1 (configuration not stated) [KETOPROFEN] | Not Active | Not Active | Not Active | Not Active | Not Active | Not Active | Not Active | Not Active | Not Active | Not Active | Not Active | Not Active | Not Active | Not Active | Not Active | Not Active | – | –
Nc1ccn([C@@H]2CS[C@H](CO)O2)c(=O)n1 [LAMIVUDINE] | Not Active | Not Active | Not Active | Not Active | Not Active | Not Active | Not Active | Not Active | Not Active | Not Active | Not Active | Not Active | Not Active | Not Active | Not Active | Not Active | – | –
O=S(=O)([O-])CCS.[Na+] [MESNA] | Not Active | Not Active | Not Active | Not Active | Not Active | Not Active | Not Active | Not Active | Not Active | Not Active | Not Active | Not Active | Not Active | Not Active | Not Active | Not Active | – | –
C#C[C@]1(O)CC[C@H]2[C@@H]3CCc4cc(OC)ccc4[C@H]3CC[C@@]21C [MESTRANOL] | Not Active | Not Active | Not Active | Not Active | Not Active | Not Active | Not Active | Not Active | Not Active | Not Active | Not Active | Not Active | Not Active | Not Active | Not Active | Not Active | – | –
Cc1ncc([N+](=O)[O-])n1CCO [METRONIDAZOLE] | Not Active | Not Active | Not Active | Not Active | Not Active | Not Active | Not Active | Not Active | Not Active | Not Active | Not Active | Not Active | Not Active | Not Active | Not Active | Not Active | – | –
CC(C)(C(=O)c1cccnc1)c1cccnc1 [METYRAPONE] | Not Active | Not Active | Not Active | Not Active | Not Active | Not Active | Not Active | Not Active | Not Active | Not Active | Not Active | Not Active | Not Active | Not Active | Not Active | Not Active | – | –
Oc1ccc(OCc2ccccc2)cc1 [MONOBENZONE] | Not Active | Not Active | Not Active | Not Active | Not Active | Not Active | Not Active | Not Active | Not Active | Not Active | Not Active | Not Active | Not Active | Not Active | Not Active | Not Active | – | –
CC(C)(Oc1ccc(C2CCCc3ccccc32)cc1)C(=O)O (configuration not stated) [NAFENOPIN] | Not Active | Not Active | Not Active | Not Active | Not Active | Not Active | Not Active | Not Active | Not Active | Not Active | Not Active | Not Active | Not Active | Not Active | Not Active | Not Active | – | –
CC(C)[C@H]1CC[C@H](C(=O)N[C@H](Cc2ccccc2)C(=O)O)CC1 [NATEGLINIDE] | Not Active | Not Active | Not Active | Not Active | Not Active | Not Active | Not Active | Not Active | Not Active | Not Active | Not Active | Not Active | Not Active | Not Active | Not Active | Not Active | – | –
CCN[C@@H]1C[C@H](N)[C@@H](O[C@H]2OC(CN)=CC[C@H]2N)[C@H](O)[C@H]1O[C@H]1OC[C@](C)(O)[C@H](NC)[C@H]1O [NETILMICIN] | Not Active | Not Active | Not Active | Not Active | Not Active | Not Active | Not Active | Not Active | Not Active | Not Active | Not Active | Not Active | Not Active | Not Active | Not Active | Not Active | – | –
CCOC(=O)C1=C(C)NC(C)=C(C(=O)OC)C1c1cccc([N+](=O)[O-])c1 (configuration not stated) [NITRENDIPINE] | Not Active | Not Active | Not Active | Not Active | Not Active | Not Active | Not Active | Not Active | Not Active | Not Active | Not Active | Not Active | – | – | Not Active | Not Active | 9.42 | 9.61
C#C[C@]1(OC(C)=O)CC[C@H]2[C@@H]3CCC4=CC(=O)CC[C@@H]4[C@H]3CC[C@@]21C [NORETHINDRONE ACETATE] | Not Active | Not Active | Not Active | Not Active | Not Active | Not Active | Not Active | Not Active | Not Active | Not Active | Not Active | Not Active | Not Active | Not Active | Not Active | Not Active | – | –
COc1ccc2[nH]c([S+]([O-])Cc3ncc(C)c(OC)c3C)nc2c1 (configuration not stated) [OMEPRAZOLE] | Not Active | Not Active | Not Active | Not Active | Not Active | Not Active | Not Active | Not Active | Not Active | Not Active | Not Active | Not Active | Not Active | Not Active | Not Active | Not Active | – | –
Cc1nccn1CC1CCc2c(c3ccccc3n2C)C1=O (configuration not stated) [ONDANSETRON] | Not Active | Not Active | Not Active | Not Active | Not Active | Not Active | Not Active | Not Active | Not Active | Not Active | Not Active | Not Active | Not Active | Not Active | Not Active | Not Active | – | –
CCCCOc1ccc(OCCCN2CCOCC2)cc1 [PRAMOXINE] | Not Active | Not Active | Not Active | Not Active | Not Active | Not Active | Not Active | Not Active | Not Active | Not Active | Not Active | Not Active | Not Active | Not Active | Not Active | Not Active | – | –
O=C(C1CCCCC1)N1CC(=O)N2CCc3ccccc3C2C1 (configuration not stated) [PRAZIQUANTEL] | Not Active | Not Active | Not Active | Not Active | Not Active | Not Active | Not Active | Not Active | Not Active | Not Active | Not Active | Not Active | Not Active | Not Active | Not Active | Not Active | – | –
CCN(CC)CCOC(=O)c1ccc(N)cc1 [PROCAINE] | Not Active | Not Active | Not Active | Not Active | Not Active | Not Active | Not Active | Not Active | Not Active | Not Active | Not Active | Not Active | Not Active | Not Active | Not Active | Not Active | – | –
